Source: the supplement of paper PMC10477900

Assays:
HCT116 [1] = conditions: 72 h
Method: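 HCT116 control and MTA1-KO (CRISPR) HCT116 cells were seeded in 384-well plates (800 cells/well), treated 16 h later with 237 metabolism-related anticancer drugs at five doses (10 uM, 2 uM, 400 nM, 80 nM, 16 nM) for 72 h, two replicates; viability by CCK8. Values are % inhibition of viability relative to untreated cells, plus fitted IC50.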

HCT116 [2] = test: viability inhibition vs untreated; higher = more cytotoxic; conditions: 72 h

Row | SMILES | IC50 (HCT116 [1]; genotype: MTA1-KO) | IC50 (HCT116 [1]; genotype: control) | viability inhibition (HCT116 [2]; genotype: MTA1-KO, 16 nM) | viability inhibition (HCT116 [2]; genotype: MTA1-KO, 80 nM) | viability inhibition (HCT116 [2]; genotype: MTA1-KO, 400 nM) | viability inhibition (HCT116 [2]; genotype: MTA1-KO, 2000 nM) | viability inhibition (HCT116 [2]; genotype: MTA1-KO, 10000 nM) | viability inhibition (HCT116 [2]; genotype: control, 16 nM) | viability inhibition (HCT116 [2]; genotype: control, 80 nM) | viability inhibition (HCT116 [2]; genotype: control, 400 nM) | viability inhibition (HCT116 [2]; genotype: control, 2000 nM) | viability inhibition (HCT116 [2]; genotype: control, 10000 nM)
1 | CC1(C)O[C@@H]2[C@@H](CO[C@@]3(COS(N)(=O)=O)OC(C)(C)O[C@@H]23)O1 [Topiramate] | > 10 µM | > 10 µM | -4.79% | -13.2% | -12.6% | -13% | -6.53% | 0.571% | -0.663% | 3.41% | 3.1% | 12.4%
2 | Nc1nc2[nH]cc(CCc3ccc(C(=O)N[C@@H](CCC(=O)O)C(=O)O)cc3)c2c(=O)[nH]1 [Pemetrexed Disodium Hydrate] | 1.71 µM | > 10 µM | -0.998% | 0.351% | -2.35% | 34.3% | 60.9% | -14.7% | -8.65% | -11.7% | -6.77% | 5.15%
3 | N#Cc1ccnc(N2C(=O)CC[C@H]2C(=O)N(c2cncc(F)c2)[C@H](C(=O)NC2CC(F)(F)C2)c2ccccc2Cl)c1 [Ivosidenib] | 5.82 µM | > 10 µM | 3.53% | -8.17% | -0.782% | 12.7% | 61.7% | -4.33% | -18.7% | -4.67% | -16.1% | -2.68%
4 | Cc1nc2ccc(CN(C)c3ccc(C(=O)N[C@@H](CCC(=O)O)C(=O)O)s3)cc2c(=O)[nH]1 [Raltitrexed] | 0.0857 µM | > 10 µM | -4.56% | 33.6% | 75.8% | 81.5% | 82.6% | -7.91% | -17.2% | 24.9% | 13% | -5.41%
5 | COC(=O)Nc1ccc(-c2nc(N3CCOCC3)c3cnn(C4CCN(C(=O)OC)CC4)c3n2)cc1 [WYE354] | 2.79 µM | > 10 µM | 2.45% | -4.99% | -5.74% | 4.61% | 59.8% | -11.9% | -23.4% | -20.1% | -21.3% | 40.4%
6 | c1cc(-c2cnn3cc(-c4ccc(OCCN5CCCCC5)cc4)cnc23)ccn1 [Dorsomorphin] | > 10 µM | > 10 µM | 1.25% | -13.4% | -12.4% | -11.7% | -1.25% | 19.5% | 29.9% | 18.4% | 20.9% | 19.6%
7 | Oc1ccc2c(c1)OCO2 [Sesamol] | > 10 µM | > 10 µM | -15.3% | -20.6% | -20.7% | -23.5% | -9.02% | 12.7% | -1.76% | -11.9% | -12.6% | -2.94%
8 | COCCNC(=O)Nc1ccc2nc(-c3cccs3)c(-c3cccs3)nc2c1 [Ac-CoA Synthase Inhibitor1] | > 10 µM | > 10 µM | -8.17% | 14.9% | 15% | 10.1% | 6.2% | 3.53% | 9.39% | -0.277% | -10.1% | 8.5%
9 | Cc1c(CN2CCN(C(=O)[C@H](C)O)CC2)sc2c(N3CCOCC3)nc(-c3cnc(N)nc3)nc12 [Apitolisib] | 0.471 µM | 0.268 µM | -11.5% | 2.04% | 38.8% | 65.3% | 82.6% | 0.365% | 0.791% | 60.6% | 70.1% | 80.4%
10 | COc1ccc(-c2ccc3c(N4CCOCC4)nc(N4C[C@@H](C)O[C@@H](C)C4)nc3n2)cc1CO | 0.753 µM | 2.24 µM | 14.6% | 18.1% | 36.5% | 68.5% | 82.3% | 13.2% | 20.4% | 21.5% | 59.4% | 72.9%
